Paper PMC5678437, “A new antagonist for CCR4 attenuates allergic lung inflammation in a mouse model of asthma” (Scientific Reports, 2017)

Experiments:
[1] = target: T1, CCR2B (Homo sapiens, UniProt P41597); assay: Chemotaxis inhibition assay for receptor specificity, HEK293-CCR2B; type: cell-based; details: 0.2, 1, 5, 25 μM, 30 min pretreatment
T1 construct: expressed in transfected cells; host or cells: HEK293, pcDB-CCR2B plasmid made in the authors' laboratory
T1 sequence (P41597 1-360 isoform P41597-2): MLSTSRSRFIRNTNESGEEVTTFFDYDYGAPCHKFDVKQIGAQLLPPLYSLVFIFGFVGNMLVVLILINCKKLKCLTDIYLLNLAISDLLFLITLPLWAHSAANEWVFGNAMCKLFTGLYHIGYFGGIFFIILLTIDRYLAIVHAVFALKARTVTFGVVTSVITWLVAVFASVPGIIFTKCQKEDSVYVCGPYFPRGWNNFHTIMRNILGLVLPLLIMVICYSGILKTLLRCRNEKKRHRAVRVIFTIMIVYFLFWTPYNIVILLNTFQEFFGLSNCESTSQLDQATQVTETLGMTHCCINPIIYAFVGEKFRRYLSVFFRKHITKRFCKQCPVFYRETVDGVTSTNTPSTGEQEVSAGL
Procedure: (§1) HEK293 cells were transfected with different chemokine receptors. The corresponding chemokines of different receptors were placed in the lower chambers. The transfected cells were pretreated with different concentrations of Compound 8a or 1‰ DMSO for 30 min at a density of 1 × 10^6 cells/ml and added to the upper chambers, the final concentration of the compound is: 0.2 μM, 1 μM, 5 μM, and 25 μM, respectively.

[2] = target: T2, CCR7 (Homo sapiens, UniProt P32248); assay: Chemotaxis inhibition assay for receptor specificity, HEK293-CCR7; type: cell-based; details: 0.2, 1, 5, 25 μM, 30 min pretreatment
T2 construct: expressed in transfected cells; host or cells: HEK293, pcDB-CCR7 plasmid made in the authors' laboratory
T2 sequence (P32248 25-378): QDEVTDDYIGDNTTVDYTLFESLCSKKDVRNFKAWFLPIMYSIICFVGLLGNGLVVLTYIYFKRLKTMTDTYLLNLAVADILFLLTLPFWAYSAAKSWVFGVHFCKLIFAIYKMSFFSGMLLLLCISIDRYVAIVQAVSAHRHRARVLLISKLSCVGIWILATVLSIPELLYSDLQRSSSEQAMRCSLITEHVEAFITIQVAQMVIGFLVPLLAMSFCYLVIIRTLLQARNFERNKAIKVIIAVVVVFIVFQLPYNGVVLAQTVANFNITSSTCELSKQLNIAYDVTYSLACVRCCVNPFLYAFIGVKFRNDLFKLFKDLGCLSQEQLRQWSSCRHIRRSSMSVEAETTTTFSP
Procedure: as §1

[3] = target: T3, CCR3 (Homo sapiens, UniProt P51677); assay: Chemotaxis assay for receptor specificity, HEK293-CCR3; type: cell-based; details: compound as chemoattractant in lower chamber, 0.2, 1, 5, 25 μM
T3 sequence (P51677 1-355): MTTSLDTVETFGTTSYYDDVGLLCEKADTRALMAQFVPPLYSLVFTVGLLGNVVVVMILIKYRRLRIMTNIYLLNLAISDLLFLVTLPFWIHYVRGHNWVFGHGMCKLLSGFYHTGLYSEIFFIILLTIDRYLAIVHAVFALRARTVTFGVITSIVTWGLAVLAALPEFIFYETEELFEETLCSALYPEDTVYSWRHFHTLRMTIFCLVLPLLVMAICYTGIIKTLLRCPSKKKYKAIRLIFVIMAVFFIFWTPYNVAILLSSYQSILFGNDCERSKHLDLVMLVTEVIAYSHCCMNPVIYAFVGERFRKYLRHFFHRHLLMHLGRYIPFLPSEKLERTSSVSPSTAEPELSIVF
Procedure: HEK293 cells were transfected with different chemokine receptors. Compound 8a with DMSO was diluted to 0.2 mM, 1 mM, 5 mM and 25 mM, and then we used RPMI 1640 medium containing 0.1% BSA for dilution. The final concentration is: 0.2 μM, 1 μM, 5 μM and 25 μM. DMSO was also diluted 1000-fold with 0.1% BSA RPMI 1640 medium. Chemokines was also diluted to an appropriate concentration. The dilutions of Compound 8a, 1‰ DMSO, the corresponding chemokines of different receptors and 0.1% BSA RPMI 1640 medium were placed in the lower chambers (27.5 μl/well). The transfected HEK293 cells were resuspended in the same medium at a density of 1 × 10^6 cells/ml and added to the upper chambers (55 μl/well).

[4] = tested on: OVA-induced asthmatic mice; assay: BALF total cell and cell differential counts in OVA-induced asthmatic mice; type: in vivo, BALB/c mice; details: for total cells count in BALF: vs vehicle
Procedure: Male BALB/c 6 week old mice were purchased from the Experimental Animal Center of Zhejiang University. All mice were raised in a specific pathogen-free animal facility. All animal experiments were carried out according to the guidelines for the care and use of laboratory animals and were approved by the ethics committee of Zhejiang University and Peking University, China.
Mice were sensitized and challenged with chicken egg OVA (sigma-Aldrich, St Louis, MO, USA) as described in details previously. Briefly, after sensitized by intraperitoneal injection of 100 μl (80 μg) OVA in 100 μl alum (Pierce, Rockford, IL, USA) on days 0 and 14, mice were exposure to 1% OVA aerosols for 40 min on days 24–26. Control mice were injected intraperitoneally with saline and exposed to saline aerosols.
Compound 8a was dissolved in saline with DMSO (0.5%). Half an hour before each OVA challenge, the groups of mice treated with various doses of compound 8a (0.2, 1, 5 mg) inhaled aerosolized compound 8a for 45 min on days 24–26. Compound 8a aerosols were produced by using a Plexiglas chamber and ultrasonic nebulizer. While the budesonide (BUD) group were administered with 5 mg budesonide, and the vehicle group were treated with compound-dissolved vehicle. The Saline was treated as the control.
Twenty-four hours after the last exposure, collection of BALF and cell count was performed as previously described. Briefly, lavage was performed by instilling 0.4 ml PBS into lungs and with drawn to collect the cells three times. Total BALF cells were counted. After be centrifuged, the remaining cells was spun onto glass slides, and stained with Wright–Giemsa stain. Differential counts were evaluated by counting 400 total cells.

[5] = target: T4, CCR3 (Homo sapiens, UniProt P51677); assay: Chemotaxis inhibition assay for receptor specificity, HEK293-CCR3; type: cell-based; details: 0.2, 1, 5, 25 μM, 30 min pretreatment
T4 sequence (P51677 2-355 limits assumed): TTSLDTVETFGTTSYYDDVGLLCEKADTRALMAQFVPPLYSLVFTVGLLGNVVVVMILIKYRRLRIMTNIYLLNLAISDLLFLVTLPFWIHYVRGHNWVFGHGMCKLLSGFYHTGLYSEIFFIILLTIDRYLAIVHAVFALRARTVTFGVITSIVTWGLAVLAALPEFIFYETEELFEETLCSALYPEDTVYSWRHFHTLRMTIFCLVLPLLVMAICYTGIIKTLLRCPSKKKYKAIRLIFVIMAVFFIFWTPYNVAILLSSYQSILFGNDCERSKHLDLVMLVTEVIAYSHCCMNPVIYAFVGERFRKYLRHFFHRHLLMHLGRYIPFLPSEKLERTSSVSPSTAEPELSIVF
Procedure: as §1

[6] = 5 mg inhaled aerosol, compared with vehicle treated group
[7] = compound 8a 0.2, 1, 5 mg, budesonide 5 mg, inhaled aerosol

inhibition of chemotaxis of HEK293-CCR2B to its ligand [1]: few influence
inhibition of chemotaxis of HEK293-CCR7 to its ligand [2]: few influence
chemotaxis effect of the compound on HEK293-CCR3 [3]: didn’t exert chemotaxis effects
inhibition of chemotaxis of HEK293-CCR3 to its ligand [5]: few influence
Compound: O=C(C1CCCCN1)N1CCN(c2nc(Cl)cc(NCc3ccc(Cl)cc3Cl)n2)CC1 (centres unmarked) [compound 8a, {4-[4-Chloro-6-(2,4-dichloro-benzylamino)-pyrimidin-2-yl]-piperazin-1-yl}-piperidin-2-yl-methanone]
total cells count in BALF ([4]; 0.2 mg inhaled aerosol): marginal
total cells count in BALF ([4]; 1 mg inhaled aerosol): remarkably inhibitory effect
absolute number of eosinophils in BALF [4, 6]: significantly decreased
absolute number of lymphocytes in BALF [4, 6]: significantly decreased
total cells count in BALF ([4]; 5 mg inhaled aerosol): remarkably inhibitory effect
number of macrophages in BALF [4, 7]: neither compound 8a nor budesonide affect
number of neutrophils in BALF [4, 7]: neither compound 8a nor budesonide affect
